Laboratory results reported in patent US6541480B2, “1-aryl-1,8-naphthylidin-4-one derivative as type IV phosphodiesterase inhibitor” (Suntory Limited, priority 1997, dated 2003).
pIC50: −log10 of the molar value.

Experiments:
[1] = tested on: type IV phosphodiesterase; experiment: Type IV phosphodiesterase inhibiting activity (3H-cAMP hydrolysis, PDE IV fraction from U937 cells); assay type: biochemical; conditions: PDE IV fraction from human U937 cells, 30° C., 30 minutes
[2] = tested on: TNF-α production by LPS stimulated mouse peritoneal macrophages; experiment: TNF-α production inhibitory activity by LPS stimulated macrophages (ELISA); assay type: cell-based; conditions: LPS 10 μg/ml, 8 hours
Procedure: (1) Method of Measurement of TNF-α Production Inhibitory Activity by LPS Stimulated Macrophages
The following assay was used to evaluate the ability of the compound of the present invention to suppress TNF-α production by LPS stimulated macrophages according to Immuno pharmacol. 29, 121-127 (1995).
1) 6 to 10 week old female BALB/c mice were used, 2 ml portions of thioglycolate were intraperitoneally administered, and the abdominal cavities were washed by 10 ml of PBS after 4 days, whereby 1 to 2×10^7 peritoneal cells were obtained per mouse. These were suspended in a hemocyte solution (0.75% ammonium chloride, 17 mM tris-hydrochlorate buffer, pH7.2), centrifuged, then resuspended in an RPMI1640 medium including 10% fetal calf serum and seeded in a 96-well cell culture plate at a density of 1×10^5 cells/50 μl/well. Since these cells adhered strongly to the tissue culture plate and were positive in nonspecific esterase staining, they were used for the test as mouse peritoneal macrophages. Mouse peritoneal macrophages were precultured overnight at 37° C. in 5% CO2 for the experiment.
2) E. Coli (serum type 055:B5) derived LPS was dissolved in PBS in a concentration of 1 mg/ml, then sterilized by filtration. The test compound was dissolved in DMSO to make a 1000-fold concentration solution of the final concentration of use. 10 μl of the above LPS stock solution (final concentration 10 μg/ml) and 1 μl of the tested substance stock solution were added and mixed in 0.5 ml of RPMI1640 medium containing 10% fetal calf serum. This was added to the above cells at 50 μl/well and cultured for 8 hours. The cultured supernatant was recovered from each well and the TNF-α concentration was measured by the ELISA method (Cytoscreen® Immunoassay Kit Mouse TNF-α, BioSource International).

[3] = 28-day repeated administration toxicity in mice; assay type: in vivo; conditions: 10 mg/kg per day administered for 28 days to mice

SMILES | pIC50 [1] | pIC50 ([2]; Peritoneal macrophage) | death [3] | pIC50 [2]
O=C(Nc1ccncc1)c1cn(-c2ccc(F)cc2)c2ncccc2c1=O [Example 103, 1-(4-Fluorophenyl)-N-(4-pyridyl)-1,4-dihydro[1,8]naphthylidin-4-one-3-carboxamide] | 7.23 | 7.00 | no death | –
O=C(Nc1cccnc1)c1cn(-c2ccc(F)cc2)c2ncccc2c1=O [Example 102, 1-(4-Fluorophenyl)-N-(3-pyridyl)-1,4-dihydro[1,8]naphthylidin-4-one-3-carboxamide] | 7.46 | 7.00 | no death | –
O=C(Nc1c(Cl)cccc1Cl)c1cn(-c2ccc(F)cc2)c2ncccc2c1=O [Example 99, N-(2,6-Dichlorophenyl)-1-(4-fluorophenyl)-1,4-dihydro[1,8]naphthylidin-4-one-3-carboxamide] | 8.47 | 7.60 | no death | –
O=C(Nc1c(Cl)cncc1Cl)c1cn(-c2ccc(F)cc2)c2ncccc2c1=O [Example 106, N-(3,5-Dichloropyridin-4-yl)-1-(4-fluorophenyl)-1,4-dihydro[1,8]naphthylidin-4-one-3-carboxamide] | 9.40 | – | no death | 8.00
O=C(Nc1ccncc1)c1cn(-c2ccncc2)c2ncccc2c1=O [Example 139, 1,N-bis-(4-Pyridyl)-1,4-dihydro[1,8]naphthylidin-4-one-3-carboxamide] | 7.15 | 7.00 | no death | –
O=C(Nc1c(Cl)cncc1Cl)c1cn(-c2ccncc2)c2ncccc2c1=O [Example 141, N-(3,5-Dichloropyridin-4-yl)-1-(4-pyridyl)-1,4-dihydro[1,8]naphthylidin-4-one-3-carboxamide] | 9.30 | 9.00 | no death | –
